# According to patent publication US12662479B2 (Foghorn Therapeutics Inc., priority 2020, dated 2026):
# Legend:
# HiBit-BRM fusion protein = target: T1, HiBit-BRM fusion protein (Homo sapiens, UniProt P51531); assay: HiBiT-BRM cell-based degradation assay (Nano-Glo HiBiT Lytic Detection, 24 h); details: HeLa cells expressing HiBiT-BRM; for DC50: read-out: BRM HiBit Degradation IC50; for BRM HiBit Degradation Maximum measured: top dose 30 μM
# T1 construct: expressed in transfected cells
# Procedure, shortened: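 HeLa cells stably expressing HiBiT-BRM were treated for 24 h with compounds (10-point 3-fold dilutions, 30 μM final top dose, in duplicate). HiBiT was detected by lytic LgBiT complementation luminescence. % degradation was normalized to DMSO (high control) and 2 μM of a reference BRM/BRG1 degrader (low control).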
# [1] = target: T2, HiBit-BRG1 fusion protein (Homo sapiens, UniProt P51532); assay: HiBiT-BRG1 cell-based degradation assay (Nano-Glo HiBiT Lytic Detection, 24 h); details: HeLa cells expressing HiBit-BRG1 and LgBit; for DC50: read-out: BRG1 HiBit Degradation IC50; for Dmax: HeLa, top dose 30 μM, read-out: BRG1 HiBit Degradation Maximum measured
# T2 construct: expressed in transfected cells
# Procedure, shortened: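 Stable HeLa line expressing HiBiT-BRG1 and LgBiT, seeded at 5000 cells/well; luminescence read after lytic Nano-Glo HiBiT reagent and 10 min shaking at RT. % degradation normalised between DMSO (high control) and 2 μM reference BRM/BRG1 degrader (low control).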
# T2 sequence (P51532 whole entry, the tested form may be a part): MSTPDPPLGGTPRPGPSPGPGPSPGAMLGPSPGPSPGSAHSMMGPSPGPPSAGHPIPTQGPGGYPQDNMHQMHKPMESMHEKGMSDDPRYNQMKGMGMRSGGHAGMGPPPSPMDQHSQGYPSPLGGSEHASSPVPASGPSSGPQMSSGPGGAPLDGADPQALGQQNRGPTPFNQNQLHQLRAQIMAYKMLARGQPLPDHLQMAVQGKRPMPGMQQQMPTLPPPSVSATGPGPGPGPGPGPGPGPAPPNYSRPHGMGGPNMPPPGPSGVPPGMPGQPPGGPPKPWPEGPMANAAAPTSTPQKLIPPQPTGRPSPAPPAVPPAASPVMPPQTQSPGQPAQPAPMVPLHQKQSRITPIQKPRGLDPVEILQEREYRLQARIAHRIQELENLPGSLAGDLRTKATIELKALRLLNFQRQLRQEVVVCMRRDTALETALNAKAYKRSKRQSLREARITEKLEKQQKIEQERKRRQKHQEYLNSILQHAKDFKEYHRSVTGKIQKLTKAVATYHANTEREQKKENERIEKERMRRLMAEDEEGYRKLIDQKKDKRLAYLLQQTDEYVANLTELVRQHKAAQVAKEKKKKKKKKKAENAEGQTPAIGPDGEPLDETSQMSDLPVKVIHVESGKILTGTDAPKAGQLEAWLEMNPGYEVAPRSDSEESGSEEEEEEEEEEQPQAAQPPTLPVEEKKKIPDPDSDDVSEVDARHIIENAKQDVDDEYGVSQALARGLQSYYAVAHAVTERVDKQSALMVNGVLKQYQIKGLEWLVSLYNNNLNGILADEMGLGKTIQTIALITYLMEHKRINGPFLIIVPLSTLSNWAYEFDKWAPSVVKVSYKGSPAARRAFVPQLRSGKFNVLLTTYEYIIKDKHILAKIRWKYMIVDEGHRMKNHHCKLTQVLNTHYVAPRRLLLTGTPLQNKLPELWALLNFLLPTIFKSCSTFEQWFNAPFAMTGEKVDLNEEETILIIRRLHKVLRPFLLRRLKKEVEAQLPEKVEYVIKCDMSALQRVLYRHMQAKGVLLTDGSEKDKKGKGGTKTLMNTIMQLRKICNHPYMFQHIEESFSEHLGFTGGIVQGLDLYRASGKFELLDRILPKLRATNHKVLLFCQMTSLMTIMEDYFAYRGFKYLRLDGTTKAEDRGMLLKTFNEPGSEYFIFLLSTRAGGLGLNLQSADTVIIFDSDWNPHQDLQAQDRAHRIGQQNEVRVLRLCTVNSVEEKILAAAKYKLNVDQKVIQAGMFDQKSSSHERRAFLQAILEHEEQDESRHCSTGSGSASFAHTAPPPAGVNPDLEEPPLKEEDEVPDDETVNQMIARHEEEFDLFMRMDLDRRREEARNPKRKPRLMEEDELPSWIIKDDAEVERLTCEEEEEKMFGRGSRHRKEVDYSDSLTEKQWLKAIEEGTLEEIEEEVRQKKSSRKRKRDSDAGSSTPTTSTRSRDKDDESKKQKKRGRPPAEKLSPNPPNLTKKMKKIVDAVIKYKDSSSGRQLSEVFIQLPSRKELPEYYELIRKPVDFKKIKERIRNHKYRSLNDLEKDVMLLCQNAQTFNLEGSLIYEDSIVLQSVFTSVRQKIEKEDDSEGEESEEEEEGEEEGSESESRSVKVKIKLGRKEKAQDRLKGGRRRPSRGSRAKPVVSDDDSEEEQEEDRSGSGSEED
# T1 sequence (P51531 whole entry, the tested form may be a part): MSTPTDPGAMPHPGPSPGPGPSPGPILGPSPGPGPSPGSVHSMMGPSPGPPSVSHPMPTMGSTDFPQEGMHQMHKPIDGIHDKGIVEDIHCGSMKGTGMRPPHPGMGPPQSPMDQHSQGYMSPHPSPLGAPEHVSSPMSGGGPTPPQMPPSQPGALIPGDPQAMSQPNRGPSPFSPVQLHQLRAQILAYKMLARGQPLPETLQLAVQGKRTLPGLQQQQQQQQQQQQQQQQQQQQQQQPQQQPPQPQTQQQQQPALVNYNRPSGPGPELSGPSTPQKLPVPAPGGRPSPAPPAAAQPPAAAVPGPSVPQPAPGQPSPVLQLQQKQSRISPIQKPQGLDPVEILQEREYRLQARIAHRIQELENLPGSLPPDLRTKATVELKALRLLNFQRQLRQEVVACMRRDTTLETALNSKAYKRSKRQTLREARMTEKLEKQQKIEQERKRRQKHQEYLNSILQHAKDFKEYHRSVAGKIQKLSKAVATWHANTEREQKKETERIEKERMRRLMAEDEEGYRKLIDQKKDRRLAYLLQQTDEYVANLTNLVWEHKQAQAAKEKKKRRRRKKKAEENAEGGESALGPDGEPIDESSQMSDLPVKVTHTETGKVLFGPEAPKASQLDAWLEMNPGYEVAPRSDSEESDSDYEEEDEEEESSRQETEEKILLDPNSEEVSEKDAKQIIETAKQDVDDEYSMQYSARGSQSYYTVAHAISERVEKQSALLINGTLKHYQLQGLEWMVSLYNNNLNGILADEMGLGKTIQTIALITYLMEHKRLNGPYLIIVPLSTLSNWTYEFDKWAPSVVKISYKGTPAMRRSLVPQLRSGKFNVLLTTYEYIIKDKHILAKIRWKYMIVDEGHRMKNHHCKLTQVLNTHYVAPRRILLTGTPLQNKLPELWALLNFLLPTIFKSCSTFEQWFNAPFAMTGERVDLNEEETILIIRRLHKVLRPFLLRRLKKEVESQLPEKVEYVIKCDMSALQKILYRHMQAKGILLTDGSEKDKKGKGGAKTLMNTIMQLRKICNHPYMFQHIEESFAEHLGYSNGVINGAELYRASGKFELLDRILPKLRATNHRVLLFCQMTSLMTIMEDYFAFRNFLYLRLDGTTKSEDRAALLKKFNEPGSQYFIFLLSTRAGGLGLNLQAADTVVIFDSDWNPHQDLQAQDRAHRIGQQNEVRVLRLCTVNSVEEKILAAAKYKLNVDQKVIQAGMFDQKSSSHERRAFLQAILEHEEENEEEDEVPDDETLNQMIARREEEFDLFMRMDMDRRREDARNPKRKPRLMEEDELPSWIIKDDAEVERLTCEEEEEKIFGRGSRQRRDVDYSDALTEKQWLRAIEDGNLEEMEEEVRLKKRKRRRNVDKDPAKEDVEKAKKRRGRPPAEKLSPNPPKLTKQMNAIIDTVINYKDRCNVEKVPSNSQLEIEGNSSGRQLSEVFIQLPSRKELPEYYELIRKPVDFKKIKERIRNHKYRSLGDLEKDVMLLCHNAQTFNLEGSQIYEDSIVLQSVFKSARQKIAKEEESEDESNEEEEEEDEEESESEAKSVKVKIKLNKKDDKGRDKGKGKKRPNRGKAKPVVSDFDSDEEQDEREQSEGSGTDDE
Compound,DC50 (HiBit-BRM fusion protein) [nM],BRM HiBit Degradation Maximum measured (HiBit-BRM fusion protein),DC50 [1] [nM],Dmax [1] [%]
"CS(=O)(=O)n1ccc(C(=O)N[C@@H](COCc2ccc(C(=O)N3CCN(CCCOc4ccc5c(c4)C(=O)N(C4CCC(=O)NC4=O)C5=O)CC3)cc2)C(=O)Nc2nc(-c3ccccc3)cs2)c1 (stereo partly drawn) [Compound 235, (2S)-3-([4-[4-(3-[[2-(2,6-dioxopiperidin-3-yl)-1,3-dioxoisoindol-5-yl]oxy]propyl)piperazine-1-carbonyl]phenyl]methoxy)-2-[(1-methanesulfonylpyrrol-3-yl)formamido]-N-(4-phenyl-1,3-thiazol-2-yl)propanamide]",> 10000,C (‘C’ = Maximum degradation <50%),> 10000,< 50
"CS(=O)(=O)n1ccc(C(=O)N[C@@H](COCc2ccc(C(=O)NCCOCc3cccc(COCCOc4ccc5c(c4)C(=O)N(C4CCC(=O)NC4=O)C5=O)c3)cc2)C(=O)Nc2nc(-c3ccccc3)cs2)c1 (stereo partly drawn) [Compound 237, N-[2-([3-[(2-[[2-(2,6-dioxopiperidin-3-yl)-1,3-dioxoisoindol-5-yl]oxy]ethoxy)methyl]phenyl]methoxy)ethyl]-4-[[(2S)-2-[(1-methanesulfonylpyrrol-3-yl)formamido]-2-[(4-phenyl-1,3-thiazol-2-yl)carbamoyl]ethoxy]methyl]benzamide]",100 to 1000,B (‘B’ = Maximum degradation ≥50% and ≤75%),100 to 1000,50 to 75
"CS(=O)(=O)n1ccc(C(=O)N[C@@H](COCc2ccc(C(=O)N3CC(CCOc4cccc5c4C(=O)N(C4CCC(=O)NC4=O)C5=O)C3)cc2)C(=O)Nc2nc(-c3ccccc3)cs2)c1 (stereo partly drawn) [Compound 238, (2S)-3-([4-[3-(2-[[2-(2,6-dioxopiperidin-3-yl)-1,3-dioxoisoindol-4-yl]oxy]ethyl)azetidine-1-carbonyl]phenyl]methoxy)-2-[(1-methanesulfonylpyrrol-3-yl)formamido]-N-(4-phenyl-1,3-thiazol-2-yl)propanamide]",> 10000,C (‘C’ = Maximum degradation <50%),> 10000,< 50
"CS(=O)(=O)n1ccc(C(=O)N[C@@H](COCc2ccc(C(=O)N3CCN(CCCC#Cc4ccc5c(c4)C(=O)N(C4CCC(=O)NC4=O)C5=O)CC3)cc2)C(=O)Nc2nc(-c3ccccc3)cs2)c1.O=CO (stereo partly drawn) [Compound 239, (2S)-3-[[4-(4-[5-[2-(2,6-dioxopiperidin-3-yl)-1,3-dioxoisoindol-5-yl]pent-4-yn-1-yl]piperazine-1-carbonyl)phenyl]methoxy]-2-[(1-methanesulfonylpyrrol-3-yl)formamido]-N-(4-phenyl-1,3-thiazol-2-yl)propanamide; formic acid]",> 10000,C (‘C’ = Maximum degradation <50%),> 10000,< 50
CS(=O)(=O)n1ccc(C(=O)N[C@@H](COCc2ccc(C(=O)NCCCCNc3ccc4c(c3)C(=O)N(C3CCC(=O)NC3=O)C4=O)cc2)C(=O)Nc2nc(-c3ccccc3)cs2)c1 (some centres unmarked) [Compound 242],100 to 1000,B (‘B’ = Maximum degradation ≥50% and ≤75%),100 to 1000,50 to 75
"CS(=O)(=O)n1ccc(C(=O)N[C@@H](COCc2ccc(C(=O)NCCCCCNc3ccc4c(c3)C(=O)N(C3CCC(=O)NC3=O)C4=O)cc2)C(=O)Nc2nc(-c3ccccc3)cs2)c1 (stereo partly drawn) [Compound 243, N-(5-[[2-(2,6-dioxopiperidin-3-yl)-1,3-dioxoisoindol-5-yl]amino]pentyl)-4-[[(2S)-2-[(1-methanesulfonylpyrrol-3-yl)formamido]-2-[(4-phenyl-1,3-thiazol-2-yl)carbamoyl]ethoxy]methyl]benzamide]",100 to 1000,B (‘B’ = Maximum degradation ≥50% and ≤75%),100 to 1000,> 75
"CS(=O)(=O)n1ccc(C(=O)N[C@@H](COCc2ccc(C(=O)NCCC3CCN(c4ccc5c(c4)C(=O)N(C4CCC(=O)NC4=O)C5=O)CC3)cc2)C(=O)Nc2nc(-c3ccccc3)cs2)c1 (stereo partly drawn) [Compound 245, N-(2-[1-[2-(2,6-dioxopiperidin-3-yl)-1,3-dioxoisoindol-5-yl]piperidin-4-yl]ethyl)-4-[[(2S)-2-[(1-methanesulfonylpyrrol-3-yl)formamido]-2-[(4-phenyl-1,3-thiazol-2-yl)carbamoyl]ethoxy]methyl]benzamide]",< 100,A (‘A’ = Maximum degradation >75%),< 100,> 75
"CS(=O)(=O)n1ccc(C(=O)N[C@@H](COCc2ccc(C(=O)NCCOC3CN(c4ccc5c(c4)C(=O)N(C4CCC(=O)NC4=O)C5=O)C3)cc2)C(=O)Nc2nc(-c3ccccc3)cs2)c1 (stereo partly drawn) [Compound 246, N-[2-([1-[2-(2,6-dioxopiperidin-3-yl)-1,3-dioxoisoindol-5-yl]azetidin-3-yl]oxy)ethyl]-4-[[(2S)-2-[(1-methanesulfonylpyrrol-3-yl)formamido]-2-[(4-phenyl-1,3-thiazol-2-yl)carbamoyl]ethoxy]methyl]benzamide]",100 to 1000,B (‘B’ = Maximum degradation ≥50% and ≤75%),100 to 1000,> 75
"CS(=O)(=O)n1ccc(C(=O)N[C@@H](COCc2ccc(C(=O)NCCCCS(=O)(=O)CCCNc3cccc4c3C(=O)N(C3CCC(=O)NC3=O)C4=O)cc2)C(=O)Nc2nc(-c3ccccc3)cs2)c1 (stereo partly drawn) [Compound 248, N-[4-(3-[[2-(2,6-dioxopiperidin-3-yl)-1,3-dioxoisoindol-4-yl]amino]propanesulfonyl)butyl]-4-[[(2S)-2-[(1-methanesulfonylpyrrol-3-yl)formamido]-2-[(4-phenyl-1,3-thiazol-2-yl)carbamoyl]ethoxy]methyl]benzamide]",1000 to 10000,B (‘B’ = Maximum degradation ≥50% and ≤75%),100 to 1000,50 to 75
"Cc1ncsc1-c1ccc(CNC(=O)[C@@H]2C[C@@H](O)CN2C(=O)[C@@H](NC(=O)COCCOCCNC(=O)CCCOCC[C@H](NC(=O)c2ccn(S(C)(=O)=O)c2)C(=O)Nc2nc(-c3ccccc3)cs2)C(C)(C)C)cc1 [Compound 249, (2S,4R)-4-hydroxy-1-[(2S)-2-[2-[2-(2-[4-[(3S)-3-[(1-methanesulfonylpyrrol-3-yl)formamido]-3-[(4-phenyl-1,3-thiazol-2-yl)carbamoyl]propoxy]butanamido]ethoxy)ethoxy]acetamido]-3,3-dimethylbutanoyl]-N-[[4-(4-methyl-1,3-thiazol-5-yl)phenyl]methyl]pyrrolidine-2-carboxamide]",> 10000,C (‘C’ = Maximum degradation <50%),> 10000,< 50

# Second part, the compound after the results:
DC50 (HiBit-BRM fusion protein) [nM],BRM HiBit Degradation Maximum measured (HiBit-BRM fusion protein),DC50 [1] [nM],Dmax [1] [%],Compound
> 10000,C (‘C’ = Maximum degradation <50%),> 10000,< 50,"CS(=O)(=O)n1ccc(C(=O)N[C@@H](COCc2ccc(C(=O)NCCOCCOCCOCCNC(=O)COc3cccc4c3C(=O)N(C3CCC(=O)NC3=O)C4=O)cc2)C(=O)Nc2nc(-c3ccccc3)cs2)c1 (stereo partly drawn) [Compound 236, N-((2S)-3-((4-((1-((2-(2,6-dioxopiperidin-3-yl)-1,3-dioxoisoindolin-4-yl)oxy)-2-oxo-6,9,12-trioxa-3-azatetradecan-14-yl)carbamoyl)benzyl)oxy)-1-oxo-1-((4-phenylthiazol-2-yl)amino)propan-2-yl)-1-(methylsulfonyl)-1H-pyrrole-3-carboxamide]"
> 10000,C (‘C’ = Maximum degradation <50%),> 10000,< 50,"CS(=O)(=O)n1ccc(C(=O)N[C@@H](COCc2ccc(C(=O)NCCNc3ccc4c(c3)C(=O)N(C3CCC(=O)NC3=O)C4=O)cc2)C(=O)Nc2nc(-c3ccccc3)cs2)c1 (stereo partly drawn) [Compound 240, N-(2-[[2-(2,6-dioxopiperidin-3-yl)-1,3-dioxoisoindol-5-yl]amino]ethyl)-4-[[(2S)-2-[(1-methanesulfonylpyrrol-3-yl)formamido]-2-[(4-phenyl-1,3-thiazol-2-yl)carbamoyl]ethoxy]methyl]benzamide]"
> 10000,C (‘C’ = Maximum degradation <50%),> 10000,< 50,"CN(CCNC(=O)c1ccc(COCC(NC(=O)c2ccn(S(C)(=O)=O)c2)C(=O)Nc2nc(-c3ccccc3)cs2)cc1)CCNc1cccc2c1C(=O)N(C1CCC(=O)NC1=O)C2=O [Compound 244, (N-[2-[(2-[[2-(2,6-dioxopiperidin-3-yl)-1,3-dioxoisoindol-4-yl]amino]ethyl)(methyl)amino]ethyl]-4-[[(2S)-2-[(1-methanesulfonylpyrrol-3-yl)formamido]-2-[(4-phenyl-1,3-thiazol-2-yl)carbamoyl]ethoxy]methyl]benzamide]"
100 to 1000,A (‘A’ = Maximum degradation >75%),100 to 1000,> 75,"CS(=O)(=O)n1ccc(C(=O)N[C@@H](COCc2ccc(C(=O)NC3CCN(CCOc4ccc5c(c4)C(=O)N(C4CCC(=O)NC4=O)C5=O)CC3)cc2)C(=O)Nc2nc(-c3ccccc3)cs2)c1 (stereo partly drawn) [Compound 247, N-[1-(2-[[2-(2,6-dioxopiperidin-3-yl)-1,3-dioxoisoindol-5-yl]oxy]ethyl)piperidin-4-yl]-4-[[(2S)-2-[(1-methanesulfonylpyrrol-3-yl)formamido]-2-[(4-phenyl-1,3-thiazol-2-yl)carbamoyl]ethoxy]methyl]benzamide]"
